Entries after “also recorded” stand apart in the source; their conditions may differ.
Key:
FKBP12.6 [1] = target: T1, FKBP12.6 (Bos taurus, UniProt P68107); experiment: [3H]dihydroFK-506 direct binding (LH-20 assay), Scatchard, FKBP12.6; design: species or system bovine (calf brain); details: direct binding data, Scatchard format
T1 construct: The FKBP12.6 protein has been isolated and purified from calf brain; from tissue; host or cells: calf brain cytosol
Procedure: (§1) The basic LH-20 binding assay was performed as described by Handschumacher,R., et al., Science, 226, 544-547 (1984) with the modifications noted in Siekierka, J., et al., Nature, 341, 755-757 (1989).

FKBP12 = FKBP12 (Homo sapiens, UniProt P62942); experiment: [3H]dihydroFK-506 direct binding, FKBP12; details: unit inferred
Sequence of FKBP12 (P62942 whole entry, species assumed): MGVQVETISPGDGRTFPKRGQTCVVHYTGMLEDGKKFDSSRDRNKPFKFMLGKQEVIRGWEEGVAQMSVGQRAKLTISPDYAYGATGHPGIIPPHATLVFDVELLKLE
Procedure: as §1

JURKAT cells = experiment: IL-2 secretion in JURKAT cells stimulated with PMA and ionomycin; format: cell-based, human
[2] = FK-506 specific binding activity of FKBP12.6 preparations (LH-20 assay)
Procedure: However, FKBP12.6 is separated completely from authentic FKBP12 in Step II by chromatography on the CM-450M column. FKBP12.6 remains bound to the CM column while FKBP12 flows through during loading and washing. FKBP12.6 elutes from the column between 100 and 200 mM NaCl and Westerns of the gradient fractions using the anti-C-terminal peptide antibody confirm that there is no trace of FKBP12 present in the FKBP12.6 fractions. Because of the presence of FKBP12 in the S200, the recovery of FKBP12.6 may only be calculated from the CM-450M step forward using the standard LH-20 binding assay (Handschumacher, R., et al., Science. 226, 544-547 (1984)).
Starting with approximately 60 grams of protein in the crude cytosolic brain extract, a typical yield after purification is about 50 μg of homogeneous FKBP12.6 (see Table I). […] FKBP12.6 was eluted from the resin with 4M guanidine-HCl and renatured by dialysis. […] This calculates to a 3,271-fold purification from the CM-450M step. Because the CM-450M step removes 94% of the protein from the crude extract, the overall s purification from the S200 is actually much greater. In calf brain cytosol then, FKBP12.6 is clearly much less abundant than FKBP12 is in calf thymus which was purified from that tissue 337-fold to homogeneity with almost the identical recovery (Siekierka, J., et al., Nature, 341, 755-757 (1989)). […] A second explanation for the lower than expected binding is that the LH-20 assay used to estimate binding is not an equilibrium binding assay and ligand off-rates will result in lower calculated specific binding activities. A third explanation is that all of the FKBP12.6 may not be […] properly and the […] protein may not bind effectively.
as §1

[3] = Peptidyl-prolyl cis-trans isomerase (PPIase) activity; format: biochemical
Procedure: (§2) PPIase assays were performed as described (Fischer, G., et al., Nature, 337,476-478 (1989)) with the following changes: the peptide substrate used was N-succinyl-Ala-Leu-Pro-Phe-p-nitroanilide (BACHEM, California) at a final concentration of 72 μM and chymotrypsin (Sigma) was present in the assay at a concentration of 6 μM. The total reaction volume was 1.5 ml. The release of p-nitroanilide by chymotrypsin was measured by following the increase in absorbance at 405 nm on a Beckman DU68 spectrophotometer. After an initial rapid rise in absorbance due to hydrolysis of the trans peptide, the slow secondary increase in absorbance which reflects the cis-to-trans conversion of the peptide by the PPIase was measured at 3 sec intervals out to 1.5 min. The data were fitted to a simple first-order rate equation and the first-order rate constant, k (s^-1), calculated.

calcineurin [4] = experiment: Calcineurin phosphatase assay; format: biochemical, bovine
Procedure: For a side-by-side comparison, FKBP12 was also tested for its ability to inhibit calcineurin in the presence of drug.
The calcineurin phosphatase assay is a modified version of previous assays (Liu, J., et al., Cell, 66, 807-815 (1991); Manalan, A., et al., Proc. Natl. Acad. Sci. U.S.A., 80, 4291-4295 (1983)). Reaction mixtures ([…] contained: 40 mM Tris (pH 8), 100 mM NaCl, 6 mM Mg(OAc)2, 0.1 mM CaCl2, 0.1 mg/ml BSA, 0.5 mM dithiothreitol, 190 nM bovine brain calmodulin (Sigma), 3 nM bovine brain calcineurin (Sigma), and 40 μM [^33 P]RII peptide (Peptides International) (600 cpm/pmole). Reaction mixtures were pre-incubated for 30 min at 30° C. prior to addition of the labeled peptide. The reaction was initiated by addition of the peptide and the dephosphorylation reaction was allowed to proceed for 10 min at 30° C. The reaction was terminated by the addition of 0.5 ml of 5% trichloroacetic acid containing 100 mM sodium phosphate (stop buffer) and applied to a 0.5 ml Dowex 50W-X8, H^+ column. Free [^33 P]phosphate was eluted from the column with 0.5 ml of stop buffer followed by 0.5 ml of water.

calcineurin [5] = experiment: FKBP.FK-506.CaN complex-formation assay (size-exclusion column, Western analysis); format: binding, bovine; details: Ca^2+
Procedure: In the modified assay, samples were assayed by Western analysis using the anti-C-terminal peptide antibody in order to identify FKBP12 and FKBP12.6 in various chromatographic fractions.
In the first experiment, FKBP12 and FKBP12.6 were partially purified by preparative HPLC gel filtration chromatography on a Bio-Sil TSK-125 column. These partially purified FKBPs (containing both FKBP12 and FKBP12.6) are devoid of CaN which separates completely from them on this column. FKBP12 and FKBP12.6 co-elute at fractions 26 and 27 on the analytical sizing column (G2000SW) used in this experiment. […] Because this crude FKBP material also contains FKBP12.6, it can also be observed migrating slightly above FKBP12 in FIG. 4A.
To more carefully examine the requirements for FKBP12.6 complex formation with CaN, experiments were conducted using purified FKBP12.6.
The incubation buffer contained 20 mM Tris (pH 7.5), 100 mM NaCl, 6 mM MgCl2, 0.1 mM CaCl2, 0.1 mg/ml BSA, and 0.5 mM dithiothreitol. The incubation reaction was chromatographed on a Bio-Sil SEC400 HPLC column (Bio-Rad) at a flow rate of 1 ml/min and 1 min fractions were collected. The chromatography buffer was the same as the incubation buffer except that BSA was omitted. 30 μl of fractions 19-29 were subjected to electrophoresis on a 16% Novex Tris-Glycine gel and Western analysis was performed as described above.

Heat stability = format: physicochemical
[6] = FK-506 specific binding activity of FKBP12.6 preparations (LH-20 assay); details: Step II. CM-650M
FKBP12.6 [7] = target: T1, FKBP12.6; experiment: Inhibition of PPIase activity of FKBP12.6; format: biochemical, bovine (calf brain)
Procedure: as §2

[8] = literature; cited from earlier work
[9] = partially purified FKBP12.6 (Step VI)

T1 sequence (P68107 whole entry): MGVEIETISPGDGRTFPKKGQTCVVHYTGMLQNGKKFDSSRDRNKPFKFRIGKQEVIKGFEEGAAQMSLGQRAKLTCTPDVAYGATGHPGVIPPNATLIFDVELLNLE

Compound: [3H]CC([3H])C[C@@H]1/C=C(\C)C[C@H](C)C[C@H](OC)[C@H]2O[C@@](O)(C(=O)C(=O)N3CCCC[C@H]3C(=O)O[C@H](/C(C)=C/[C@@H]3CC[C@@H](O)[C@H](OC)C3)[C@H](C)[C@@H](O)CC1=O)[C@H](C)C[C@@H]2OC (stereo partly drawn) [[^3 H]dihydroFK-506]
- Kd (FKBP12.6 [1]): 0.55 nM
- Kd (FKBP12): 0.4 nM
- inhibition of IL-2 secretion (JURKAT cells; JURKAT cells, PMA and ionomycin): potent inhibitor
- potency relative to parent compound (times less potent) (JURKAT cells; inhibition of IL-2 secretion, parent FK-506): 5 times

Compound: FKBP12.6: homogeneous cytosolic binding protein for FK-506, 10-12 kilodaltons, from calf brain; partial sequence SEQ ID NO: 1
- specific binding activity ([2]; FKBP12.6 characteristic, summary): about 4.8 micrograms FK-506 per mg FKBP12.6 protein
- FK-506 Binding (ng FK-506 bound/mg protein) ([2]; Step III. TSK-125 HPLC): 4.23 ng FK-506 bound/mg protein
- FK-506 Binding (ng FK-506 bound/mg protein) ([2]; Step IV. CM-3SW HPLC): 13.3 ng FK-506 bound/mg protein
- FK-506 Binding (ng FK-506 bound/mg protein) ([2]; Step V. Phenyl-5PW HPLC): 52.85 ng FK-506 bound/mg protein
- FK-506 Binding (ng FK-506 bound/mg protein) ([2]; Step VI. G2000SW HPLC, about 25% pure): 1278.3 ng FK-506 bound/mg protein
- FK-506 Binding (ng FK-506 bound/mg protein) ([2]; Step VII. FK-506 Affinity): 4874.0 ng FK-506 bound/mg protein
- theoretical specific binding activity ([2]; assuming mass of 12.6 kDa and 1 mole FK-506 per mole protein): 64 mg of [^3 H]dihydroFK-506 per
- specific binding activity ([2]; purified FKBP12.6): 4.8 μg of [^3 H]dihydroFK-506 per mg of protein
- retention of binding to FK-506 ([2]; renatured material): retains binding to FK-506
- PPIase activity compared with FKBP12 ([3]; 25% purity of FKBP12.6 factored in): virtually equivalent to that of FKBP12
- PPIase activity ([3]; Example 4): low, but significant PPIase activity
- PPIase activity ([3]; material from step VI): did have PPIase activity
- PPIase activity ([3]; renatured material (Step VII)): did not have PPIase activity
- IC50 (calcineurin [4]; in presence of FK-506, CaN, CaM, Ca^2+, Mg^2+, read-out: IC50 for inhibition of CaN): 16 nM
- ability to block CaN phosphatase activity relative to FKBP12 (calcineurin [4]; in presence of FK-506, FIG. 5): almost equipotent to FKBP12
- complex formation with CaN (calcineurin [5]; partially purified FKBPs, CaM, Mg^2+ and FK-506): Most of the FKBP12.6 is shifted to a high molecular weight complex
- complex formation with CaN (calcineurin [5]; purified FKBP12.6, CaM, Mg^2+ and FK-506): all of the immunoreactive FKBP12.6 is shifted to fractions (20-22)
- complex formation with CaN (calcineurin [5]; purified FKBP12.6, CaM, Mg^2+, without FK-506): continues to elute at fractions 26 and 27
- stability to heating (Heat stability; 56° C. for 30 minutes): not stable upon heating; also recorded: unstable to heating
- effect of heat-treatment step (Heat stability; cytosolic extract from calf brain): complete loss of FKBP12.6
- FK-506 Binding (ng FK-506 bound/mg protein) [6]: 1.49 ng FK-506 bound/mg protein

Compound: C=CCC1C=C(C)CC(C)CC(OC)C2OC(O)(C(=O)C(=O)N3CCCCC3C(=O)OC(C(C)=CC3CCC(O)C(OC)C3)C(C)C(O)CC1=O)C(C)CC2OC (stereo not drawn) [FK-506, 17-allyl-1,14-dihydroxy-12-[2'-(4"-hydroxy-3"-methoxycyclohexyl)-1'-methylvinyl]-23,25-dimethoxy-13,19,21,27-tetramethyl-11,28-dioxa-4-azatricyclo-[22.3.1.0^4,9]octacos-18-ene-2,3,10,16-tetraone]
- specific inhibition of FKBP12.6 PPIase activity (FKBP12.6 [7]; Example 4): specifically inhibited by FK-506
- inhibition of PPIase activity of FKBP12.6 (FKBP12.6 [7]; [9]): potent inhibitors
- neurological toxicities [8]: neurological toxicities, which include drowsiness, lethargy, tremors, and aggressiveness

Compound: CO[C@H]1C[C@@H]2CC[C@@H](C)[C@@](O)(O2)C(=O)C(=O)N2CCCC[C@H]2C(=O)O[C@H]([C@H](C)C[C@@H]2CC[C@@H](O)[C@H](OC)C2)CC(=O)[C@H](C)/C=C(\C)[C@@H](O)[C@@H](OC)C(=O)[C@H](C)C[C@H](C)/C=C/C=C/C=C/1C [rapamycin]
- inhibition of PPIase activity of FKBP12.6 (FKBP12.6 [7]; [9]): potent inhibitors
- inhibition of PPIase activity relative to FK-506 (FKBP12.6 [7]; [9]): somewhat better inhibitor than FK-506

From patent publication US5457182A (Merck & Co., Inc., priority 1994, dated 1995)
